The target of test [1] is T1, IRAK4 (Homo sapiens, UniProt Q9NWZ3).
T1 sequence (Q9NWZ3 1-460): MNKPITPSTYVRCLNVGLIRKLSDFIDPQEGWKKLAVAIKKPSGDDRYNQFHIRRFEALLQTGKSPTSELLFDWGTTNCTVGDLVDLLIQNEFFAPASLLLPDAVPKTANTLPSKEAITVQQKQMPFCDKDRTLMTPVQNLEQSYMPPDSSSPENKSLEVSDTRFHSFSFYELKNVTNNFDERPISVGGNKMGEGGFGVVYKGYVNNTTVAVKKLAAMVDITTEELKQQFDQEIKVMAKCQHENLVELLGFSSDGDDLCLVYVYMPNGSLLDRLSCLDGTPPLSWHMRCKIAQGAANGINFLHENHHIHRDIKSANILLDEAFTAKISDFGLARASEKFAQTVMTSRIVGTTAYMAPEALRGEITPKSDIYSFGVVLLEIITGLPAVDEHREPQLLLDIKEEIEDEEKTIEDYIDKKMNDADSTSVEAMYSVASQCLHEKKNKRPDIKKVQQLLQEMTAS
Kind of test: Assay for inhibitory effect of compound on IRAK4 kinase activity (KinEASE-STK S1 HTRF kit). It is filed as biochemical. Conditions: kinase 8 nM, ATP 80 µM, 37°C 90 minutes; read-out: IRAK4 HTRF IC50. On the procedure: Example 1: Kinase activity assay
Assay for inhibitory effect of compound on IRAK4 kinase activity
The inhibitory effect of the compound on IRAK4 kinase activity was measured using the KinEASE-STK S1 serine/threonine kinase kit (Cisbio). The specific method was as follows: the compound was dissolved in dimethyl sulfoxide and then subjected to 3-fold serial dilution in dimethyl sulfoxide, yielding final test compound concentrations in the reaction system ranging from 5,000 nM to 0.0254 nM. The kinase at a final concentration of 8 nM was added, followed by incubation at rt for 15 minutes. Subsequently, biotinylated STK1 substrate at a final concentration of 400 nM and adenosine triphosphate (ATP) at a final concentration of 80 µM were sequentially added, and the mixture was incubated at 37°C for 90 minutes. Then, the reaction was terminated by adding an anti-phosphoserine/threonine antibody conjugated with a europium cryptate and streptavidin-conjugated XL665 to the reaction system. After incubation at rt for 1 hour, the fluorescence intensity at emission wavelengths of 620 nm and 665 nm for each well was measured using an EnVision microplate reader (PerkinElmer) in HTRF mode. The ratio value was calculated using the formula: Ratio = (665 nm/620 nm)×10^4 The inhibition rate of the compound at each concentration was calculated using the formula: Inhibition% = [1-(Signal sample-Signal min)/(Signal max-Signal min)]×100. Subsequently, the dose-response curve was fitted by nonlinear curve fitting of log concentration versus inhibition rate using Fit Modela (205) in XLfit to give the IC50 value of the compound for inhibition of protein activity.

In test [2] the target is T1, IRAK4. Description: Degradation of IRAK4 in THP1 cells, Western blot. It is filed as cell-based. Also noted: Degradation of IRAK4 in THP1 by compound; host or cells: THP-1. Conditions: THP-1 cells, 24 hours of incubation; for DC50: IRAK4 protein by Western blot, read-out: DC50; for Dmax: maximum degradation rate, read-out: Dmax. A digest of the protocol:
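Degradation rate derived from densitometry of IRAK4 bands versus DMSO-treated controls. Read-out: anti-IRAK4 immunoblot (10% gel, 40 μg total protein per lane, BCA-normalised) of lysates from THP1 cells incubated with compound for 24 h.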
Background: In western blotting, separated proteins are transferred to a membrane and probed.

IC50, DC50 and Dmax data for 33 compounds are collected here from patent publication EP4763839A1 (Pamplona Therapeutics (Shenzhen) Co., Ltd., priority 2023, dated 2025).

Where a name gives a salt, the structure may show the parent alone.

Turning to `CC(C)(C)OC(=O)N1CCC(n2cc(NC(=O)c3cccc(C(F)(F)F)n3)c(C(N)=O)n2)CC1` [Compound A1], the IC50 on IRAK4 [1] lay within 0.1 to 1 µM.
For `NC(=O)c1nn(-c2cnc(Br)cn2)cc1NC(=O)c1cccc(C(F)(F)F)n1` [Compound A2], the IC50 on IRAK4 [1] was above 1 µM.
Consider `NC(=O)c1nn(C2CCNCC2)cc1NC(=O)c1cccc(C(F)(F)F)n1` [Compound A3], for which, at IRAK4 [1], the IC50 lay within 0.1 to 1 µM.
`NC(=O)c1cn(-c2ccccc2)nc1NC(=O)c1cccc(C(F)(F)F)n1` [Compound A4]: the IC50 on IRAK4 [1] is above 1 µM.
Still for that read-out and setting: the result for `NC(=O)c1nn(-c2ccccc2)cc1NC(=O)c1cccc(C(F)(F)F)n1` [Compound A5] reads below 0.1 µM; that for `NC(=O)c1nn(-c2ccc(O)cc2)cc1NC(=O)c1cccc(C(F)(F)F)n1` [Compound A6], below 0.1 µM; that for `COc1ccc(-n2cc(NC(=O)c3cccc(C(F)(F)F)n3)c(C(N)=O)n2)cc1` [Compound A7], 0.1 to 1 µM.
Take `NC(=O)c1nn(-c2ccc(N)cc2)cc1NC(=O)c1cccc(C(F)(F)F)n1` [Compound A9]: the IC50 at IRAK4 [1] fell in the range of 0.1 to 1 µM.
As to `CNc1ccc(-n2cc(NC(=O)c3cccc(C(F)(F)F)n3)c(C(N)=O)n2)cc1` [Compound A10], the IC50 at IRAK4 [1] lay in the range of 0.1 to 1 µM.
Consider `CC(=O)Nc1ccc(-n2cc(NC(=O)c3cccc(C(F)(F)F)n3)c(C(N)=O)n2)cc1` [Compound A12], for which the IC50 on IRAK4 [1] is below 0.1 µM.
Consider `CNC(=O)c1ccc(-n2cc(NC(=O)c3cccc(C(F)(F)F)n3)c(C(N)=O)n2)cc1` [Compound A14], for which, on IRAK4 [1], the IC50 is below 0.1 µM.
Consider `CN(C)C(=O)c1ccc(-n2cc(NC(=O)c3cccc(C(F)(F)F)n3)c(C(N)=O)n2)cc1` [Compound A15], for which the IC50 on IRAK4 [1] was below 0.1 µM.
As for `NC(=O)c1nn(-c2ccc(C(=O)N3CCNCC3)cc2)cc1NC(=O)c1cccc(C(F)(F)F)n1` [Compound A16], the IC50 at IRAK4 [1] is below 0.1 µM.
With `NC(=O)c1nn(-c2ccc(C(=O)O)c(F)c2)cc1NC(=O)c1cccc(C(F)(F)F)n1` [Compound A17], the IC50 at IRAK4 [1] was 0.1 to 1 µM.
As for `NC(=O)c1nn(-c2ccc(CO)cc2)cc1NC(=O)c1cccc(C(F)(F)F)n1` [Compound A18], at IRAK4 [1], the IC50 lay in the range of 0.1 to 1 µM.
In the case of `COCc1ccc(-n2cc(NC(=O)c3cccc(C(F)(F)F)n3)c(C(N)=O)n2)cc1` [Compound A19], the IC50 on IRAK4 [1] was below 0.1 µM.
Take `NCc1ccc(-n2cc(NC(=O)c3cccc(C(F)(F)F)n3)c(C(N)=O)n2)cc1` [Compound A20]: the IC50 on IRAK4 [1] is below 0.1 µM.
For the compound `CNCc1ccc(-n2cc(NC(=O)c3cccc(C(F)(F)F)n3)c(C(N)=O)n2)cc1` [Compound A21], the IC50 on IRAK4 [1] is below 0.1 µM.
As for `CN(C)Cc1ccc(-n2cc(NC(=O)c3cccc(C(F)(F)F)n3)c(C(N)=O)n2)cc1` [Compound A22], the IC50 on IRAK4 [1] was below 0.1 µM.
As to `CC(=O)NCc1ccc(-n2cc(NC(=O)c3cccc(C(F)(F)F)n3)c(C(N)=O)n2)cc1` [Compound A23], the IC50 at IRAK4 [1] is below 0.1 µM.
With `CC(=O)N(C)Cc1ccc(-n2cc(NC(=O)c3cccc(C(F)(F)F)n3)c(C(N)=O)n2)cc1` [Compound A24], the IC50 on IRAK4 [1] was below 0.1 µM.
Take `NC(=O)c1nn(-c2ccc(N3CCNCC3)cc2)cc1NC(=O)c1cccc(C(F)(F)F)n1` [Compound A25]: the IC50 on IRAK4 [1] was below 0.1 µM.
Take `CN1CCN(c2ccc(-n3cc(NC(=O)c4cccc(C(F)(F)F)n4)c(C(N)=O)n3)cc2)CC1` [Compound A26]: the IC50 at IRAK4 [1] was below 0.1 µM.
Regarding `CC(=O)N1CCN(c2ccc(-n3cc(NC(=O)c4cccc(C(F)(F)F)n4)c(C(N)=O)n3)cc2)CC1` [Compound A27], the IC50 at IRAK4 [1] is below 0.1 µM.
In the case of `CC(C)(O)c1nn(-c2ccc(N3CCN(C4CCN(c5ccc(OC6CCC(=O)NC6=O)cn5)CC4)CC3)cc2)cc1NC(=O)c1cccc(C(F)(F)F)n1` (stereo not drawn) [Compound A440, N-(1-(4-(4-(1-(5-((2,6-Dioxopiperidin-3-yl)oxy)pyridin-2-yl)piperidin-4-yl)piperazin-1-yl)phenyl)-3-(2-hydroxypropan-2-yl)-1H-pyrazol-4-yl)-6-(trifluoromethyl)picolinamide], at IRAK4 [2], the DC50 is below 0.1 µM and the Dmax was above 60%.
For the compound `CC(C)(O)c1nn(-c2ccc(N3CCN(C4CCN(c5ccc(C(=O)NC6CCC(=O)NC6=O)c(F)c5)CC4)CC3)cc2)cc1NC(=O)c1cccc(C(F)(F)F)n1` (stereo not drawn) [Compound A442, N-(1-(4-(4-(1-(4-((2,6-dioxopiperidin-3-yl)carbamoyl)-3-fluorophenyl)piperidin-4-yl)piperazin-1-yl)phenyl)-3-(2-hydroxypropan-2-yl)-1H-pyrazol-4-yl)-6-(trifluoromethyl)picolinamide], at IRAK4 [2], the DC50 was below 0.1 µM and the Dmax is above 60%.
The corresponding values for `CC(C)(O)c1nn(-c2ccc(N3CCN(C4CCN(c5ccc(C(=O)NC6CCC(=O)NC6=O)cc5F)CC4)CC3)cc2)cc1NC(=O)c1cccc(C(F)(F)F)n1` (stereo not drawn) [Compound A443, N-(1-(4-(4-(1-(4-((2,6-dioxopiperidin-3-yl)carbamoyl)-2-fluorophenyl)piperidin-4-yl)piperazin-1-yl)phenyl)-3-(2-hydroxypropan-2-yl)-1H-pyrazol-4-yl)-6-(trifluoromethyl)picolinamide] are below 0.1 µM and above 60%.
For the compound `CN(c1ccc(N2CCC(CN3CCN(c4ccc(-n5cc(NC(=O)c6cccc(C(F)(F)F)n6)c(C(N)=O)n5)cc4)CC3)CC2)c(F)c1)C1CCC(=O)NC1=O` (stereo not drawn) [Compound A447, N-(3-Carbamoyl-1-(4-(4-((1-(4-((2,6-Dioxopiperidin-3-yl)(methyl)amino)-2-fluorophenyl)piperidin-4-yl)methyl)piperazin-1-yl)phenyl)-1H-pyrazol-4-yl)-6-(trifluoromethyl)picolinamide formate], on IRAK4 [2], the DC50 was below 0.1 µM and the Dmax was above 60%.
As for `NC(=O)c1nn(-c2ccc(N3CCN(C(=O)N4CCC(Cc5ccc(N6CCC(=O)NC6=O)cc5)CC4)CC3)cc2)cc1NC(=O)c1cccc(C(F)(F)F)n1` [Compound A448], on IRAK4 [2], the DC50 lay within 0.1 to 1 µM and the Dmax lay within 40 to 60%.
For the compound `NC(=O)c1nn(C23CC(N4CCN(C5CCN(c6ccc(NC7CCC(=O)NC7=O)cc6F)CC5)CC4)(C2)C3)cc1NC(=O)c1cccc(C(F)(F)F)n1` (stereo not drawn) [Compound A451, N-(3-Carbamoyl-1-(3-(4-(1-(4-((2,6-Dioxopiperidin-3-yl)amino)-2-fluorophenyl)piperidin-4-yl)piperazin-1-yl)bicyclo[1.1.1]pentan-1-yl)-1H-pyrazol-4-yl)-6-(trifluoromethyl)picolinamide], on IRAK4 [2], the DC50 was below 0.1 µM and the Dmax is above 60%.
Regarding `NC(=O)c1cn(-c2ccc(N3CCN(C4CCN(c5ccc(C(=O)NC6CCC(=O)NC6=O)nc5)CC4)CC3)cc2)cc1NC(=O)c1cccc(C(F)(F)F)n1` (stereo not drawn) [Compound A452, N-(4-Carbamoyl-1-(4-(4-(1-(6-((2,6-dioxopiperidin-3-yl)carbamoyl)pyridin-3-yl)piperidin-4-yl)piperazin-1-yl)phenyl)-1H-pyrrol-3-yl)-6-(trifluoromethyl)picolinamide], at IRAK4 [2], the DC50 was below 0.1 µM and the Dmax is above 60%.
For `CC(C)(O)c1nn(-c2ccc(N3CCN(CCC4CCN(C(=O)c5ccc(F)c(N6CCC(=O)NC6=O)c5)CC4)CC3)cc2)cc1NC(=O)c1cccc(C(F)(F)F)n1` [Compound A453, N-(1-(4-(4-(2-(1-(3-(2,4-Dioxotetrahydropyrimidin-1(2H)-yl)-4-fluorobenzoyl)piperidin-4-yl)ethyl)piperazin-1-yl)phenyl)-3-(2-hydroxypropan-2-yl)-1H-pyrazol-4-yl)-6-(trifluoromethyl)picolinamide], on IRAK4 [2], the DC50 was below 0.1 µM and the Dmax was above 60%.
As to `COc1ccc(C(=O)N2CCC(CCN3CCN(c4ccc(-n5cc(NC(=O)c6cccc(C(F)(F)F)n6)c(C(C)(C)O)n5)cc4)CC3)CC2)cc1N1CCC(=O)NC1=O` [Compound A454, N-(1-(4-(4-(2-(1-(3-(2,4-Dioxotetrahydropyrimidin-1(2H)-yl)-4-methoxybenzoyl)piperidin-4-yl)ethyl)piperazin-1-yl)phenyl)-3-(2-hydroxypropan-2-yl)-1H-pyrazol-4-yl)-6-(trifluoromethyl)picolinamide], at IRAK4 [2], the DC50 is below 0.1 µM and the Dmax is above 60%.

In general, IC50 refers to the concentration at which inhibition is half-maximal. One may read the DC50 as the midpoint of the concentration-degradation curve. Broadly, the Dmax is the greatest extent of degradation seen.
